Earlier results on two compounds are cited in US20220323523A1, “METHOD AND APPARATUS FOR THE INFUSION OF CA[…] A SHELF-STABLE FOOD COMPOSITION” (priority 2019, published 2022).

Molecules are shown by their SMILES.

For this series the following is noted: rats; for enhancement of exposure by co-administration of lipids compared to lipid-free formulations: co-administration of lipids vs lipid-free formulations.

`C=C(C)[C@@H]1CCC(C)=C[C@H]1c1c(O)cc(CCCCC)cc1O` [CBD, Cannabidiol]: the “enhancement of exposure by co-administration of lipids compared to lipid-free formulations” value is on record as 3 fold and the “enhancement of bioavailability by co-administration of cannabinoids with lipids” value is reported as ~3 fold.
`CCCCCc1cc(O)c2c(c1)OC(C)(C)[C@@H]1CCC(C)=C[C@@H]21` [THC, Tetrahydrocannabinol]: the “enhancement of exposure by co-administration of lipids compared to lipid-free formulations” value is listed as 2.5 fold and the “enhancement of bioavailability by co-administration of cannabinoids with lipids” value is “more than 2.5 fold”.
